# From US9149519B2, “Chimeric human immunodeficiency virus type 1 (HIV-1) with enhanced dendritic cell and macrophage tropism comprising the simian immunodeficiency virus (SIV) minimal Vpx packaging domain” (New York University, priority 2012, dated 2015)
# Tests used:
# IFN-β mRNA = IFN-β mRNA induction in infected MDDC by qRT-PCR; assay type: cell-based, human; conditions: AZT 25 μM or Raltegravir 10 μM added prior to infection
# resting CD4+ T cells = conditions: Siliciano et al. 2012; cited from earlier work
# MDDC = assay type: cell-based, human
# MDM = assay type: cell-based, human
# MDM and MDDC = experiment: Infectivity on MDM and MDDC (summary statements); assay type: cell-based, human; conditions: accessory protein provided in trans
Molecule,Effect on IFN-β induction by Vpx-containing p6 chimeric virus (IFN-β mRNA),Effect of packaged accessory protein on infectivity of the p6 chimeric virus (MDDC),Effect of packaged accessory protein on infectivity of the p6 chimeric virus (MDM),Enhancement of MDM and MDDC infection (MDM and MDDC),further results
Cc1cn([C@H]2C[C@H](N=[N+]=[N-])[C@@H](CO)O2)c(=O)[nH]c1=O [AZT],blocked,,,,
Cc1nnc(C(=O)NC(C)(C)c2nc(C(=O)NCc3ccc(F)cc3)c(O)c(=O)n2C)o1 [Raltegravir],blocked,,,,
"O=C(CCCCCCC(=O)Nc1ccccc1)NO [SAHA, suberoylanilide hydroxamic acid]",,,,,Virus reactivation (resting CD4+ T cells): induced virus reactivation from resting CD4+ T cells
HIV-2rod Vpx: HIV-2 Vpx accessory protein from codon-optimized expression vector,,enhanced the infectivity of the p6 chimeric virus,enhanced the infectivity of the p6 chimeric virus on MDM,only slightly enhanced MDM and MDDC infection,Activity relative to SIVmac239 Vpx (MDDC): about 8%
"SIVagm Vpr: SIVagm protein termed Vpr but more similar to Vpx (protein, Simian immunodeficiency virus, SIVagm protein termed Vpr but more similar to Vpx) MAEGRDSRERRPGWLEIWDLSREPWDEGLRDMVAELNQEAQRHFGRELLFQVWNFCQEEGERNGAPMIERAYRYYRLVQKALFVHFRCGCRRRTPFEPYEERRNGVGGGRDGREPPPGLA",,had no detectable effect,had no detectable effect,did not enhance the infection,
"SIVmac239 Vpx: lentiviral accessory protein, codon-optimized expression vector, SEQ ID NO: 85 (protein, Simian immunodeficiency virus) MSDPRERIPPGNSGEETIGEAFEWLNRTVEEINREAVNHLPRELIFQVWQRSWEYWHDEQGMSPSYVKYRYLCLIQKALFMHCKKGCRCLGEGHGAGGWRPGPPPPPPPGLA",,enhanced the infectivity of the p6 chimeric virus,enhanced the infectivity of the p6 chimeric virus on MDM,,
